ChEMBL document CHEMBL1201862, “PubChem BioAssay data set” (2004)
Each block holds one molecule with its values, some of them ahead of it. Calls of active or inactive are those of the source.

Legend:
[1] = molecular target: Tyrosine-protein phosphatase non-receptor type 11 (Homo sapiens, UniProt Q06124); assay: PTPN11 enzyme inhibitors – biochemical, selectivity assay for STEP inhibitor project, dose response (AID 602367); type: functional; conditions: read-out: IC50_Mean
[2] = molecular target: T1, Tyrosine-protein phosphatase non-receptor type 22 (Homo sapiens, UniProt Q9Y2R2); assay: lymphoid phosphatase LYP inhibitors – biochemical, selectivity assay for STEP inhibitor project, dose response (AID 624241); type: functional
T1 sequence (Q9Y2R2 whole entry): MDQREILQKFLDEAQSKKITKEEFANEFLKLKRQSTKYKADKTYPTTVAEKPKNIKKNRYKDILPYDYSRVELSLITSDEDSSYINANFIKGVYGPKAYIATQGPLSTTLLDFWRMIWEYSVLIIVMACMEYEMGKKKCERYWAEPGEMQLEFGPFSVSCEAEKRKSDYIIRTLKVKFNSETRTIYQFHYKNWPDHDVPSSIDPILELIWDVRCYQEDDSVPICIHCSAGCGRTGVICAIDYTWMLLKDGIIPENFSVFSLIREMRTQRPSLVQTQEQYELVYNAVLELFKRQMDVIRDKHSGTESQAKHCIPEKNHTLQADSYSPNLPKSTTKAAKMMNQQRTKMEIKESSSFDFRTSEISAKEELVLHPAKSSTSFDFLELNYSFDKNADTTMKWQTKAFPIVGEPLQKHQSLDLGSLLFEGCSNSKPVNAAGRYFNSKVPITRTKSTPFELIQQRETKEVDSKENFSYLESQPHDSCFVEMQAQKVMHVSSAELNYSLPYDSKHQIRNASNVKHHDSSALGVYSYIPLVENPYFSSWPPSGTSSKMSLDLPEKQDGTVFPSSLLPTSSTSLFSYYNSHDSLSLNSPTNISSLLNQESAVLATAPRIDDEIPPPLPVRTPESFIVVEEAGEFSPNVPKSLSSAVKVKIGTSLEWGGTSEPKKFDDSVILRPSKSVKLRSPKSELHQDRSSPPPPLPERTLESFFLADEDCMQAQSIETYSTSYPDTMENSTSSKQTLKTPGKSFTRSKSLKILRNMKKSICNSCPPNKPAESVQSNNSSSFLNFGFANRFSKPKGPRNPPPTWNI

[3] = molecular target: Dual specificity protein phosphatase 3 (Homo sapiens, UniProt P51452); assay: VHR phosphatase inhibition, dose response, selectivity assay for STEP inhibitor project, biochemical (AID 602374); type: functional; conditions: read-out: IC50_Mean
[4] = molecular target: Tyrosine-protein phosphatase non-receptor type 5 (Homo sapiens, UniProt P54829); assay: PTPN5 enzyme inhibition – biochemical, fluorescence intensity, uHTS hits, confirmation (AID 602372); type: functional; conditions: read-out: IC50_Mean
[5] = molecular target: T2, Low molecular weight phosphotyrosine protein phosphatase (Homo sapiens, UniProt P24666); type: functional; conditions: read-out: IC50_Mean
T2 sequence (P24666 whole entry): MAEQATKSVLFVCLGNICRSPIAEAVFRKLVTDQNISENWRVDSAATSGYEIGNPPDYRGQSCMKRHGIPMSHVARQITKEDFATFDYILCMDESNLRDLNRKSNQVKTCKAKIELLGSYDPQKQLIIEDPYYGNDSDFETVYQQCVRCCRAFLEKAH

[6] = molecular target: T2, Low molecular weight phosphotyrosine protein phosphatase; type: functional; conditions: read-out: IC50_Mean; remark: listed apart in the source
[7] = test system: HeLa; assay: viability loss in HeLa cells – cell-based, ATP luminescence, cherry-pick samples, cytotoxicity control, dose response (AID 687004); type: functional; conditions: Homo sapiens
[8] = test system: Cryptococcus neoformans; assay: Cryptococcus growth inhibition by alamar blue – cell lysis, cherry-picks, replicate tests, mechanism study for C. neoformans antifungal project, dose response (AID 686999); type: functional, organism-based
[9] = reduced cellular PGC1a acetyl-lysine signal – cell-based, cherry-picked samples, dose response (AID 720514); type: functional;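 further: potency may reflect raised or lowered acetylation signal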
[10] = P. falciparum Dd2 growth inhibitors, dose response, SYBR Green, cherry-picked samples (AID 1159567); type: functional, cell-based
[11] = IGROV1 cell killing – plate reader, dry powder samples, PAX8 inhibitor project, dose response (AID 743043); type: functional, cell-based; conditions: IGROV-1
[12] = toxicity to human hepatoma HepG2 cells – cell-based, cherry-picked samples, cytotoxicity control, dose response (AID 1159577); type: functional
[13] = OVCAR-3 cell viability loss – plate reader, dry powder samples, PAX8 inhibitor project, dose response (AID 743044); type: functional, cell-based
[14] = molecular target: Paired box protein Pax-8 (Homo sapiens, UniProt Q06710); assay: PAX8 transcriptional activity inhibition in RMG-I – RMG-I cells, luciferase, cherry-pick, dose response (AID 687027); type: functional, cell-based;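 further: luciferase reporter driven by Pax8 target thyroperoxidase promoter measured by SteadyGlo luminescence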
[15] = LMP1-induced NF-kB luciferase signal inhibition – cell-based, EBV LMP1, dry powder, set 2, dose response (AID 624361); type: functional
[16] = TNFa-induced NF-kB reporter signal decrease – HEK293 LMP1 reporter cells, dry powder, set 2, selectivity assay for EBV LMP1 NF-kB inhibitor project, dose response (AID 624369); type: functional
[17] = T. cruzi growth inhibition in host cells, dose response, cell-based, plate reader, dry powder, set 2 (AID 652275); type: functional
[18] = molecular target: T3, High affinity choline transporter 1 (Homo sapiens, UniProt Q9GZV3); assay: inhibition of SLC5A7-mediated choline transport – cell-based, HEK-293 hCHT, [3H]-choline uptake, dose response (AID 652177); type: functional
T3 sequence (Q9GZV3 whole entry): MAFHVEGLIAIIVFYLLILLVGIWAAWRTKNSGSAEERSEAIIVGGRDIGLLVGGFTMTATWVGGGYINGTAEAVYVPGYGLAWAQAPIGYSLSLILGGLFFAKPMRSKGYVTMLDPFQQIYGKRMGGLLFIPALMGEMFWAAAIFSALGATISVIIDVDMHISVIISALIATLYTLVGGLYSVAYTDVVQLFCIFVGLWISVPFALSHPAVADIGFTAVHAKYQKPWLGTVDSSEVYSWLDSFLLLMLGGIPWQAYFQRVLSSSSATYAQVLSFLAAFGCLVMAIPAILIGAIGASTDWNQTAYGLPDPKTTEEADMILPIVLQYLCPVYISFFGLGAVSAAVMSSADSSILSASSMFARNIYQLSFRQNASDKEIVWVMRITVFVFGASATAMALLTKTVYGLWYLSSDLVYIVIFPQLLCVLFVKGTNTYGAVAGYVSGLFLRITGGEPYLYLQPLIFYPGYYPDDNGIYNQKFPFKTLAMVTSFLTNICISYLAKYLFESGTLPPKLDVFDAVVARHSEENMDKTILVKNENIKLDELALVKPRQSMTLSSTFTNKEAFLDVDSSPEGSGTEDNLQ

[19] = molecular target: T4, DNA repair protein RAD52 homolog (Homo sapiens, UniProt P43351); type: functional, biochemical
T4 sequence (P43351 whole entry): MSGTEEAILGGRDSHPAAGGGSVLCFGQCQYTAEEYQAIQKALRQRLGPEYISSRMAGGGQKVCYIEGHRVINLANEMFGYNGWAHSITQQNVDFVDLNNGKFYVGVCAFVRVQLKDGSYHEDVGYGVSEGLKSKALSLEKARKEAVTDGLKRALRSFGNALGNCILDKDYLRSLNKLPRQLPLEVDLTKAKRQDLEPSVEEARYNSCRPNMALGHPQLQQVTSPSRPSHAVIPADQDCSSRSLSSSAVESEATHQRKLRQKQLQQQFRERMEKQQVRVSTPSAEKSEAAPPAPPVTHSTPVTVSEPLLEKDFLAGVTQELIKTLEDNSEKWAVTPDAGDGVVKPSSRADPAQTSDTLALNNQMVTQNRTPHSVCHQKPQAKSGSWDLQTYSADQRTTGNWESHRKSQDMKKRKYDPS

[20] = viability loss in HepG2 hepatoma cells – cell-based, ATP luminescence, cherry-pick, activator set 2, cytotoxicity control, dose response (AID 1053143); type: functional

Sequence of Tyrosine-protein phosphatase non-receptor type 5 (P54829 whole entry): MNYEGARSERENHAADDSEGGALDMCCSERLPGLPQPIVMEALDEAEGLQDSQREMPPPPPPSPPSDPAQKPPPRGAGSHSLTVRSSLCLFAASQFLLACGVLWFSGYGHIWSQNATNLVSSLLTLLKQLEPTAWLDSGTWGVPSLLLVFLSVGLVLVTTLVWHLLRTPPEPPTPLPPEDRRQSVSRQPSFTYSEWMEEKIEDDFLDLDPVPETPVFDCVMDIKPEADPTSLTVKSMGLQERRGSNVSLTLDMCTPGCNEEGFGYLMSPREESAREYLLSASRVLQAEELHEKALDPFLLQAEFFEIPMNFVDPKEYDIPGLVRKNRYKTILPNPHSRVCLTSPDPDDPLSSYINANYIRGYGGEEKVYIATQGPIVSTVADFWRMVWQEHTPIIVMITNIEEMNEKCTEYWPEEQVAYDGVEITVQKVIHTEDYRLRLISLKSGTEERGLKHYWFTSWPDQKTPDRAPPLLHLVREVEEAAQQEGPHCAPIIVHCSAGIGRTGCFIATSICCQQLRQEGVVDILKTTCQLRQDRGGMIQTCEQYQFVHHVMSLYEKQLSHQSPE
Sequence of Dual specificity protein phosphatase 3 (P51452 whole entry): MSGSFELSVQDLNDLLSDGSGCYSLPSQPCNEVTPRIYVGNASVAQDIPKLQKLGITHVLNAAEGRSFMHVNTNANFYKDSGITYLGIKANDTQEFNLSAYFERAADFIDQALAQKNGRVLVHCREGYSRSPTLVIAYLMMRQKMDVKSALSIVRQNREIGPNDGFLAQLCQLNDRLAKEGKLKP
Sequence of Paired box protein Pax-8 (Q06710 whole entry): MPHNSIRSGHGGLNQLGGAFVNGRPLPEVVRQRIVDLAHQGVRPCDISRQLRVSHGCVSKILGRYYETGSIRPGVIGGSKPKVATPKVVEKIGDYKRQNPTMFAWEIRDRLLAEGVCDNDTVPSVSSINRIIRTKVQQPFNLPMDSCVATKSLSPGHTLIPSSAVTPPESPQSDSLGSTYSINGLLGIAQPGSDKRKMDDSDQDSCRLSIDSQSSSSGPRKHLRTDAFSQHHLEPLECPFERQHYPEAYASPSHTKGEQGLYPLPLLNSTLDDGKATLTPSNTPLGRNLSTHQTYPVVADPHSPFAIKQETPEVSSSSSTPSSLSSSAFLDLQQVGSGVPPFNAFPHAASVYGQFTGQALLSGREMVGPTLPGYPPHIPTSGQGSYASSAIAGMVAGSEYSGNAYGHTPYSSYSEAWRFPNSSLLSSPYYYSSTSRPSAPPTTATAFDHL

IC50 [1]: 2.01 µM (active)
IC50 [2]: > 100 µM (inactive)
IC50 [3]: 2.38 µM (active)
IC50 [4]: 12.8 µM (active)
IC50 [5]: 14.2 µM (active)
IC50 [6]: 15.9 µM (active)
SMILES: C/C(=N\NC(=O)c1ccccc1O)c1ccc(NC(=O)Cc2ccccc2)cc1

SMILES: COC(=O)C1=C(C)N(Cc2ccc(F)cc2)C(=S)NC1c1ccc(F)cc1 (stereo not given)
AC50 [7]: > 52 µM (inactive)
AC50 [8]: 56.1 µM (active)

SMILES: O=C(Nc1ccc(C(F)(F)F)cc1)N1C[C@@H]2N[C@H](C1)[C@@H]2c1ccc(/C=C/c2ccccc2)cc1
AC50 [9]: 1.57 µM (active)
AC50 [10]: 2.93 µM (active)
AC50 [11]: 50.8 µM (active)
AC50 [12]: 2.56 µM (active)
AC50 [13]: 36.8 µM (active)
AC50 [14]: 21.7 µM (active)

SMILES: O=C(C[C@H]1CC[C@@H]2[C@H](COC[C@H](O)CN2Cc2ccc(Oc3ccccc3)cc2)O1)N1CCc2ccccc2C1
AbsAC35 [15]: 66.11 µM
AbsAC35 [16]: 121.3 µM

SMILES: CN(C)CC#Cc1cccc(-c2nc(C(=O)NCc3ccc4c(c3)OCO4)cc3c2[C@H](CCO)N([S+]([O-])C(C)(C)C)C3)c1 (stereo not given in full)
AC50 [17]: 1.38 µM (active)

IC50 [18]: 77.3 µM (inactive)
SMILES: COc1ccc(C(=O)NCc2nc(C)cs2)cc1OC1CCN(C(C)C)CC1

SMILES: CCN1CCN(c2cc(C)c3cc(NC(=O)c4cc(OC)cc(OC)c4)ccc3n2)CC1
AC50 [19]: 11.2 µM (active)
AC50 [20]: 17.1 µM (active)
